Laboratory results: US20030129629A1, “Methods and compositions for the identification, assessment, prevention, and therapy of human cancers” (Millennium Pharmaceuticals, Inc., priority 2000, published 2003)
Read-outs that look alike come from different tables or passages of the source.

Experiments:
[1] = system: 60 cancer cell lines (NCI 60 cancer cell line series); details: cited from earlier work
[2] = system: 60 cancer cell lines (NCI 60 cancer cell line series); experiment: NCI-DTP in vitro cancer screen, sulforhodamine B (SRB) growth inhibition, 48 hour exposure; type: cell-based, human
Summary of the method: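 NCI-DTP panel of 60 cancer cell lines plated day 0 at line-specific densities, exposed from day 1 to compound at 5 ten-fold-spaced doses in duplicate wells. After 48 h, cell mass stained with sulforhodamine B; −log GI50 derived from dose–response curves, averaged, and classed Low, Medium or High sensitivity.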

SMILES: COc1cccc2c1C(=O)c1c(O)c3c(c(O)c1C2=O)C[C@@](O)(C(=O)CO)C[C@@H]3O[C@H]1C[C@H](N)[C@H](O)[C@H](C)O1 [Adriamycin]
- −Log (GI50) ([1]; Melanoma SK-MEL-2 CL10005): 6.6
- −Log (GI50) ([1]; Melanoma SK-MEL-28 CL10008): 6.5
- −Log (GI50) ([1]; NSCLC NCI-H226 CL1013): 7.2
- classification of cell line as Low(1), Medium(2), High(3) sensitivity to compound ([2]; Breast BT-549 CL5013): 2
- classification of cell line as Low(1), Medium(2), High(3) sensitivity to compound ([2]; Breast HS-578T CL5006): 2
- classification of cell line as Low(1), Medium(2), High(3) sensitivity to compound ([2]; Breast MCF7(I) CL5001): 3
- classification of cell line as Low(1), Medium(2), High(3) sensitivity to compound ([2]; Breast MCF7/ADRr CL5002): 1
- classification of cell line as Low(1), Medium(2), High(3) sensitivity to compound ([2]; Breast MDA-MB-231 CL5005): 2
- classification of cell line as Low(1), Medium(2), High(3) sensitivity to compound ([2]; Breast MDA-MB-435 CL5011): 2
- classification of cell line as Low(1), Medium(2), High(3) sensitivity to compound ([2]; Breast MDA-N CL5012): 2
- classification of cell line as Low(1), Medium(2), High(3) sensitivity to compound ([2]; Breast T-47D CL5014): 2
- classification of cell line as Low(1), Medium(2), High(3) sensitivity to compound ([2]; CNS SF-268 CL12014): 2
- classification of cell line as Low(1), Medium(2), High(3) sensitivity to compound ([2]; CNS SF-295 CL12015): 2
- classification of cell line as Low(1), Medium(2), High(3) sensitivity to compound ([2]; CNS SF-539 CL12016): 2
- classification of cell line as Low(1), Medium(2), High(3) sensitivity to compound ([2]; CNS SNB-19 CL12002): 2
- classification of cell line as Low(1), Medium(2), High(3) sensitivity to compound ([2]; CNS SNB-75(I) CL12005): 2
- classification of cell line as Low(1), Medium(2), High(3) sensitivity to compound ([2]; CNS U251(I) CL12009): 2
- classification of cell line as Low(1), Medium(2), High(3) sensitivity to compound ([2]; Colon COLO-250 CL4010): 2
- classification of cell line as Low(1), Medium(2), High(3) sensitivity to compound ([2]; Colon HCC-2998 CL4002): 2
- classification of cell line as Low(1), Medium(2), High(3) sensitivity to compound ([2]; Colon HCT-15 CL4015): 1
- classification of cell line as Low(1), Medium(2), High(3) sensitivity to compound ([2]; Colon HCT-116 CL4003): 2
- classification of cell line as Low(1), Medium(2), High(3) sensitivity to compound ([2]; Colon HT29(I) CL4001): 2
- classification of cell line as Low(1), Medium(2), High(3) sensitivity to compound ([2]; Colon KM12 CL4017): 2
- classification of cell line as Low(1), Medium(2), High(3) sensitivity to compound ([2]; Colon SW-620 CL4009): 2
- classification of cell line as Low(1), Medium(2), High(3) sensitivity to compound ([2]; Leukemia CCRF-CEM(I) CL7003): 3
- classification of cell line as Low(1), Medium(2), High(3) sensitivity to compound ([2]; Leukemia HL-60(I) CL7008): 2
- classification of cell line as Low(1), Medium(2), High(3) sensitivity to compound ([2]; Leukemia K562(I) CL7005): 2
- classification of cell line as Low(1), Medium(2), High(3) sensitivity to compound ([2]; Leukemia MOLT-4 CL7006): 3
- classification of cell line as Low(1), Medium(2), High(3) sensitivity to compound ([2]; Leukemia RPMI-8226(I) CL7010): 2
- classification of cell line as Low(1), Medium(2), High(3) sensitivity to compound ([2]; Leukemia SR CL7019): 3
- classification of cell line as Low(1), Medium(2), High(3) sensitivity to compound ([2]; Melanoma LOX IMVI CL10001): 2
- classification of cell line as Low(1), Medium(2), High(3) sensitivity to compound ([2]; Melanoma M14 CL10014): 2
- classification of cell line as Low(1), Medium(2), High(3) sensitivity to compound ([2]; Melanoma MALME-3M CL10002): 2
- classification of cell line as Low(1), Medium(2), High(3) sensitivity to compound ([2]; Melanoma SK-MEL-2 CL10005): 2
- classification of cell line as Low(1), Medium(2), High(3) sensitivity to compound ([2]; Melanoma SK-MEL-28 CL10008): 2
- sensitivity classification Low(1)/Medium(2)/High(3) ([2]; NSCLC NCI-H23(I) CL1001): 2
- sensitivity classification Low(1)/Medium(2)/High(3) ([2]; NSCLC NCI-H332M CL1017): 1
- sensitivity classification Low(1)/Medium(2)/High(3) ([2]; NSCLC NCI-H460 CL1021): 3
- sensitivity classification Low(1)/Medium(2)/High(3) ([2]; NSCLC NCI-H522 CL1003): 2
- sensitivity classification Low(1)/Medium(2)/High(3) ([2]; Ovarian IGROV1 CL6010): 2
- sensitivity classification Low(1)/Medium(2)/High(3) ([2]; Ovarian OVCAR-3 CL6001): 2
- sensitivity classification Low(1)/Medium(2)/High(3) ([2]; Ovarian OVCAR-4 CL6002): 1
- sensitivity classification Low(1)/Medium(2)/High(3) ([2]; Ovarian OVCAR-5 CL6003): 1
- sensitivity classification Low(1)/Medium(2)/High(3) ([2]; Ovarian OVCAR-8 CL6005): 2
- sensitivity classification Low(1)/Medium(2)/High(3) ([2]; Ovarian SK-OV-3 CL6011): 2
- sensitivity classification Low(1)/Medium(2)/High(3) ([2]; Prostate DU-145 CL11003): 2
- sensitivity classification Low(1)/Medium(2)/High(3) ([2]; Prostate PC-3(I) CL11001): 2
- sensitivity classification Low(1)/Medium(2)/High(3) ([2]; Renal 786-0 CL9018): 2
- sensitivity classification Low(1)/Medium(2)/High(3) ([2]; Renal A498 CL9013): 2
- sensitivity classification Low(1)/Medium(2)/High(3) ([2]; Renal ACHN CL9023): 2
- sensitivity classification Low(1)/Medium(2)/High(3) ([2]; Renal CAKI-1 CL9015): 2
- sensitivity classification Low(1)/Medium(2)/High(3) ([2]; Renal RXF-393 CL9016): 2
- sensitivity classification Low(1)/Medium(2)/High(3) ([2]; Renal SN12C CL9008): 2
- sensitivity classification Low(1)/Medium(2)/High(3) ([2]; Renal TK10 CL9024): 2
- sensitivity classification Low(1)/Medium(2)/High(3) ([2]; Renal UO-31 CL9004): 1
